Literature values, collected in US20040209344A1, “Crystal structure of angiotensin-converting enzyme-related carboxypeptidase” (priority 2002, published 2004).
Entries after “also recorded” stand apart in the source; their conditions may differ. Read-outs that look alike come from different tables or passages of the source.

Tests used:
[1] = molecular target: T1, ACE2 (Homo sapiens, UniProt Q9BYF1); design: made in house; host or cells: SF9 insect cells, baculovirus (pBac Pak9 vector), secreted into the culture supernatant; details: Tipnis et al.
Target sequence in this assay (Q9BYF1 19-740): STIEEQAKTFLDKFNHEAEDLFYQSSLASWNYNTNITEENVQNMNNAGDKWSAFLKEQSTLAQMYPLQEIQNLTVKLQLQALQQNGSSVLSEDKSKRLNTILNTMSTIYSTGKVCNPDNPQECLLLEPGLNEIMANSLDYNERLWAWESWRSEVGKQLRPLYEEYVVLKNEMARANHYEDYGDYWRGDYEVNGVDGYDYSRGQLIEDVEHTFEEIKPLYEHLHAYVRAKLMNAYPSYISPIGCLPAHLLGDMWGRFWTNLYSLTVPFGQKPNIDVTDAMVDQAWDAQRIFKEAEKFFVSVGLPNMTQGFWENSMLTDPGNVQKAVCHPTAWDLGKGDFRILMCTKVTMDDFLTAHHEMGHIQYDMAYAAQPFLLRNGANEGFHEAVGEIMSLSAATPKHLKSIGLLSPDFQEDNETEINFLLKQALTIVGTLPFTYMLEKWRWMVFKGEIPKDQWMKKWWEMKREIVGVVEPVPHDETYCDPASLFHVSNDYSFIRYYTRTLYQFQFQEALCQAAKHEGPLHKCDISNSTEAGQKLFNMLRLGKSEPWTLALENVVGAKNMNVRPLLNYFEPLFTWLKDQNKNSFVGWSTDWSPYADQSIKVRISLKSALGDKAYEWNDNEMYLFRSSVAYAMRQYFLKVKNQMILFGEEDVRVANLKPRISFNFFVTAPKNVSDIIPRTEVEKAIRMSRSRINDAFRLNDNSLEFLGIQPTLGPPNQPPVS

[2] = molecular target: somatic ACE D991 to E mutant (Homo sapiens, UniProt P12821, D1020E); details: mutation of D991 to E in somatic ACE; Williams et al.
somatic ACE D991 to E mutant, sequence (P12821 30-1306 D1020E): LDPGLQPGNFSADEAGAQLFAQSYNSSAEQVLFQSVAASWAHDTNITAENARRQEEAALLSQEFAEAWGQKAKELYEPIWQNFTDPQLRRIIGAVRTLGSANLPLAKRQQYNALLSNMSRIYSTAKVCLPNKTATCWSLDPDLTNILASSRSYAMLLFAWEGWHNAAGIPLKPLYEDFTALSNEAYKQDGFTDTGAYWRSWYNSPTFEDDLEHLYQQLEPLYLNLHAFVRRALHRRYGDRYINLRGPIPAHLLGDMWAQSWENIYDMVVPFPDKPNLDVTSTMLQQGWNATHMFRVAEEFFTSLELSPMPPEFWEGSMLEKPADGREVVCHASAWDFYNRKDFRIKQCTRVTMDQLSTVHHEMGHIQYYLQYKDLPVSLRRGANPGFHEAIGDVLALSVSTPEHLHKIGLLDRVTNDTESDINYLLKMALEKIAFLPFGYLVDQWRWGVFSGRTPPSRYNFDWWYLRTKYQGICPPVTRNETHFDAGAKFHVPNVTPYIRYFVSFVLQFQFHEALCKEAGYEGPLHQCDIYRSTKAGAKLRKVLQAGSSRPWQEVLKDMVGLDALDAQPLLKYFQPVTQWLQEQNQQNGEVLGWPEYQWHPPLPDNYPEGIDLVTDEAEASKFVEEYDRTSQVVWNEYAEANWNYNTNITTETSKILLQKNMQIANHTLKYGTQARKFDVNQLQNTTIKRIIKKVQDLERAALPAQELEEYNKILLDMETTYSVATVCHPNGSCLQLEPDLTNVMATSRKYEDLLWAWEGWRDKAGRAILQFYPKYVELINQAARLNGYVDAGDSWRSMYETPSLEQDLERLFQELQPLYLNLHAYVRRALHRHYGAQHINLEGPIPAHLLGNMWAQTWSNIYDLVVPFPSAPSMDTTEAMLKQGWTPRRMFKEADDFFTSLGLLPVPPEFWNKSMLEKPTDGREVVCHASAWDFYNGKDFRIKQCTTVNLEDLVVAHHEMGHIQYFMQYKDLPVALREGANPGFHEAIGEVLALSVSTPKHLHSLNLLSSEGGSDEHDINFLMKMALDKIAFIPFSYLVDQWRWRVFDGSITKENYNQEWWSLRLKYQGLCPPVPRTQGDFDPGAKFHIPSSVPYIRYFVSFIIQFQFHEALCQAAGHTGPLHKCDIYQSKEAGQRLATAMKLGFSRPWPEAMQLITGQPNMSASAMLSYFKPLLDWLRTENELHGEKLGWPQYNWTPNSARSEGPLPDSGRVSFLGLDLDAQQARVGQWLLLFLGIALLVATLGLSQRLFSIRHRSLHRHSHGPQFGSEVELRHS

[3] = molecular target: T1, ACE2
Target sequence in this assay (Q9BYF1 18-805): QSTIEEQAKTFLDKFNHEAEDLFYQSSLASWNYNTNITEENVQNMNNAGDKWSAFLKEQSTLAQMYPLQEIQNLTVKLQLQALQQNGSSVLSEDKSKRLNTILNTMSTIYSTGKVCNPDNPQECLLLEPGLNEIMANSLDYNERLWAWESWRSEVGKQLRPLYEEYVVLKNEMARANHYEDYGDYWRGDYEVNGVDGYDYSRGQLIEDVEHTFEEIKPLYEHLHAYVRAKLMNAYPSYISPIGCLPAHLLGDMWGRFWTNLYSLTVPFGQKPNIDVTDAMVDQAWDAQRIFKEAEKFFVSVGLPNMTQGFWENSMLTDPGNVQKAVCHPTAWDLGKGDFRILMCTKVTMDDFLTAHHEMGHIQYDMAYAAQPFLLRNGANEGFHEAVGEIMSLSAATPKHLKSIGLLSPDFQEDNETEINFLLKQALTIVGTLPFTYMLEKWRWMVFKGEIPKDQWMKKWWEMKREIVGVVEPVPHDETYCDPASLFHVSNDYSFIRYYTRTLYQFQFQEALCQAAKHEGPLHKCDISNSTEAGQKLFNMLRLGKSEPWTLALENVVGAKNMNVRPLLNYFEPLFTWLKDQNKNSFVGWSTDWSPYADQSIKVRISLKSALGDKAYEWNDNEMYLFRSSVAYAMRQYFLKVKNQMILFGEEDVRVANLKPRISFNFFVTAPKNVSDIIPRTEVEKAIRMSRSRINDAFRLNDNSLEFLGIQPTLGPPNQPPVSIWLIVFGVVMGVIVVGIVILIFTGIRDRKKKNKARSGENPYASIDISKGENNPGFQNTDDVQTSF

Molecule | activity as peptide substrate for ACE2 ([3]; Vickers et al.) | other results
C[C@H](CS)C(=O)N1CCC[C@H]1C(=O)O [captopril] |  | inhibition of ACE2 by ACE inhibitors [1]: did not inhibit; also recorded: not active
C[C@H](N[C@@H](CCc1ccccc1)C(=O)O)C(=O)N1[C@H](C(=O)O)C[C@H]2CCCC[C@@H]21 [trandolaprilat] |  | decrease in affinity for the inhibitor [2]: about 8 fold
Angiotensin 1-5: peptide DRVYI; SEQ ID NO: 10 | inactive | 
Angiotensin 1-9: peptide DRVYIHPFH; SEQ ID NO: 3 | inactive | 
Angiotensin II: vasoconstrictor peptide DRVYIHPF; SEQ ID NO: 2 | best in vitro peptide substrates | 
Apelin 13 |  | activity as peptide substrate for ACE2 [3]: best in vitro peptide substrates
Dynorphin A 1-13 | best in vitro peptide substrates | 
Leu-enkephalin: peptide YGGFL; SEQ ID NO: 8 | inactive | 
Met-enkephalin: peptide YGGFM; SEQ ID NO: 9 | inactive | 
des-Arg^9 bradykinin | best in vitro peptide substrates | 
